Measured values: patent US11981702B2, “Compounds for fluorescence sensing of duplex formation” (San Diego State University Research Foundation, priority 2016, dated 2024)
[8-DEA-tC] = 8-diethylamino tricyclic cytidine analogue (fluorescent), on 2'-deoxyribose

Legend:
Assay type in all cases: physicochemical
[1] = Quantum yield of fluorescence emission, comparative method of Williams et al., quinine sulfate standard (free nucleosides, single-stranded oligonucleotides); conditions: for ss Φem: single-stranded oligonucleotide, 1x PBS buffer pH 7.4
Method: (§1) Quantum yields of fluorescence emission were determined using the comparative method of Williams et. al. (Analyst 1983, 108, 1067) and a fluorescence standard of quinine sulfate in 0.1M H2SO4 (Table 1 and FIG. 2). The single-stranded oligonucleotides have quantum yields of fluorescence emission ranging from Φem=0.01-0.03, all brighter than the free 8-DEA-tC nucleoside by up to a factor of five. Addition of the complementary sequences and duplex formation results in further fluorescence increase in all sequences, up to Φem=0.12 for sequence GC. This quantum yield is 20-fold greater than that of the free 8-DEA-tC nucleoside, the largest such increase reported to date for a fluorescent nucleoside analogue.
(§2) All photophysical experiments were measured in a quartz sub-micro cuvette (10 mm path length) purchased from Starnacell Inc. Solutions were prepared in 1×PBS buffer at pH 7.4. Steady state emission scans were recorded using a PTI QuantaMaster QM-400 and absorbances were measured on a Shimadzu UV-1700 Pharmaspec spectrometer. Quantum yield measurements were performed the comparative method of Williams et. al. and measured in duplicate, at minimum.[7] Quinine sulfate in 0.1M H2SO4 was used as a reference standard for all photophysical measurements. Measurements by using a commercial sample of pyrrolo-dC to obtain a fluorescence quantum yield of 0.046, matching the value of 0.05 as reported by the Tor group were validated.[8] All measurements were taken with an absorbance range of 0.01-0.1. Subsequent dilutions were performed stepwise in order to obtain a minimum of five absorbance and emission spectra for quantum yield determinations. Representative data from these quantum yield measurements is plotted below. Quantum yield determinations were obtained using the following equation: […]
The determination of quantum yields for single-stranded oligonucleotides containing 8-DEA tC were calculated using the integrated emission intensity measurements of the single strand prior to the addition of the complementary strand, with the following equation. This method was validated by comparison with and confirmed with a SS quantum yield experiment.

[2] = tested on: complementary strand; assay: Quantum yield of fluorescence emission of double-stranded oligonucleotides after adding complementary strand; conditions: for ds Φem: double-stranded oligonucleotide, 1x PBS buffer pH 7.4; for increase in fluorescent quantum yield in duplex DNA as compared with the free nucleoside: matched duplex, depending on neighboring bases
Method: as §1, §2
Samples of double-stranded oligonucleotides were prepared using a known concentration of single-stranded oligonucleotide and adding a total of 2.4 equivalents of complementary strand at room temperature. A single-strand absorbance and emission were taken prior to the addition of the first 1.2 equivalents of complementary strand for purposes of single-strand calculation and verification of hybridization. An additional 1.2 equivalent is added after the first double-strand to ensure that complete hybridization was achieved. Thermal annealing procedures had no effect on the measurements as expected, given that these sequences were chosen to have no competing, stable secondary structures.

[3] = UV/Vis absorption and steady state emission spectra; conditions: for ds λmax,abs / ds λmax,em: double-stranded; for ds λmax,abs / ds λmax,em / λmax,abs (ss) / λmax,em (ss): 1x PBS buffer pH 7.4; for λmax,abs (ss) / λmax,em (ss): single-stranded
Method: as §2
Normalized absorption and emission plots of single-stranded oligonucleotides and double-stranded oligonucleotides in 1×PBS buffer at pH 7.4 were determined accordingly.

[4] = tested on: complementary strand; assay: CD melting temperature of oligonucleotide duplexes (ellipticity at 255 nm); conditions: for ΔTm: Tm for natural DNA duplex subtracted from Tm for the 8-DEA-tC-containing duplex; for Tm: duplex 5 μM in PBS pH 7.4
Method: UV CD spectra of oligonucleotide duplexes at a concentration of 5 μM in phosphate buffered saline (10 mM sodium phosphate, pH 7.4, […] potassium chloride, 137 mM sodium chloride) were collected at 25° C. in a 1 cm path length cell on an Aviv model 420 spectrophotometer equipped with a Peltier temperature controller. Background-subtracted spectra were smoothed and normalized to concentration using A260 nm as calculated from detector voltage using the following equation and converted to standard units. […] 255 nm was monitored from 15° C. to 75° C. at 1° C. increments. The TM of each duplex was calculated by fitting the raw data to a two-state model in Igor Pro. Melting curves are reported as fraction unfolded.

[5] = Viscosity sensitivity of fluorescence in methanol-glycerol mixtures; conditions: 25° C.
From the text: It was hypothesized that the C—N bond appending the diethylamino group to tC may provide a molecular rotor effect, enabling non-emissive relaxation coupled to conformational change at the excited state. […] For this reason, it was hypothesized that slowed water dynamics in the major groove of the duplex could cause an increase in the fluorescence of 8-DEA-tC. To test this hypothesis, a comparison of the solvent viscosity sensitivity of fluorescence of the 8-DEA-tC nucleoside with parent tC and 9-(2,2-dicyanovinyl)julolidine (DCVJ, a frequently used reference compound for viscosity effects on fluorescence) using mixtures of glycerol and methanol was performed (see Examples section below).
The responsiveness of (8-DEA)tC, tC, and 9-(2,2-dicyanovinyl)julolidine (DCVJ) to viscosity changes using binary methanol-glycerol mixtures was determined.
Molecular rotors are known to have fluorescent properties that are dependent on the medium viscosity, the fluorescence spectra of parent tC and (8-DEA)tC were examined in methanol-glycerol mixtures ranging from 0 to 100% methanol in glycerol at 25° C. […]
A calibration plot of fluorescence intensity (I) versus viscosity (η) were constructed using the Foster-Hoffman equation ΦF=zη^α, relating the fluorescence quantum yield (ΦF) as a function of viscosity (η) and fluorophore and solvent-specific constants (z, α).

[6] = Stern-Volmer analysis of chloride quenching; conditions: 0 mM to 180 mM NaCl
Method: To test the ability of the duplex to attenuate chloride quenching of 8-DEA-tC, a Stern-Volmer analysis was performed using the 8-DEA-tC nucleoside and the TT duplex oligonucleotide (see Examples section below). […] In contrast, chloride has a modest quenching effect on 8-DEA-tC when present in the matched TT duplex.
In order to assess the magnitude that chloride, present in our buffers, would quench the fluorescent cytidine analogues, a Stern-Volmer analysis was performed spanning from 0 mM NaCl to 180 mM NaCl to mimic the environment of the 1XPBS buffer used in the fluorescence measurements of the oligomers.
A solution fluorophore was prepared and a known volumes of a 0.5 M NaCl solution were titrated in and the resulting fluorescence change was measured. The dilution factor was taken into account when calculating integrated fluorescence intensity.

[7] = Quantum yield of fluorescence emission, comparative method of Williams et al., quinine sulfate standard (free nucleosides, single-stranded oligonucleotides); conditions: free nucleoside, 1,4-dioxane
[8] = UV/Vis absorption and steady state emission spectra; conditions: free nucleoside, 1,4-dioxane
[9] = tested on: matching complement; assay: Visual discrimination of single nucleotide mismatch under hand-held UV lamp; conditions: 0.26 mM in 0.5X PBS buffer, versus oligo alone and mismatch duplex
Method: Next, the ability of 8-DEA-tC to distinguish single nucleotide by a visible fluorescence response was tested (FIG. 5). 0.26 mM solutions of GC oligo in 0.5X PBS buffer were prepared with the GC oligo alone, a duplex with the matching complement, and a duplex with an 8-DEA-tC mismatch.

Row | Molecule | ss Φem [1] | ds Φem [2] | ds λmax,abs [3] [nm] | ds λmax,em [3] | λmax,abs (ss) [3] [nm] | λmax,em (ss) [3] | ΔTm [4] | Tm [4] [°C] | also measured
1 | CC: 5′-CGC-ACX-CTC-G-3′ (SEQ ID NO: 15), X = 8-DEA-tC (DNA CGCACCCTCG; DNA, [8-DEA-tC] at 6, backbone not given here) | 0.013 | 0.024 | 413 | 496 (496) nm | 421 | 496 (496) nm | +6.7 °C | 60.2 | –
2 | GA: 5′-CGC-AGX-ATC-G-3′ (SEQ ID NO: 10), X = 8-DEA-tC (DNA CGCAGCATCG; DNA, [8-DEA-tC] at 6, backbone not given here) | 0.020 | 0.050 | 422 | 499(499) nm | 425 | 499(499) nm | -5.1 °C | 50.7 | –
3 | N#CC(C#N)=Cc1cc2c3c(c1)CCCN3CCC2 [DCVJ, 9-(2,2-dicyanovinyl)julolidine, reference compound] | – | – | – | – | – | – | – | – | response of fluorescence intensity to viscosity [5]: three-fold greater
4 | CCN(CC)c1ccc2c(c1)Nc1nc(=O)n([C@H]3CC(O)[C@@H](CO)O3)cc1S2 (stereo partly drawn) [8-DEA-tC, 8-Diethylamino-tricyclic-2′-deoxy-β-D-ribonucleoside] | – | – | – | – | – | – | – | – | sensitivity to quenching by protic solvent relative to parent tC [1]: approximately twice as sensitive; Φem in deuterated buffer ([1]; deuterated 1X PBS buffer): 0.012; Φem ([1]; free nucleoside, 1x PBS buffer): 0.006; increase of Φem on solvent change ([1]; free nucleoside, 1x PBS buffer to 1,4-dioxane): 10 fold; increase in Φem when mispaired with A ([2]; 8-DEA-tC opposite A in duplex): less than 2 fold; Φem opposite an abasic site ([2]; 8-DEA-tC opposite abasic site (dSpacer) in duplex): effectively the same as for the free nucleoside; increase in fluorescent quantum yield in duplex DNA as compared with the free nucleoside [2]: ≤ 20 fold; ε ([3]; free nucleoside, 1x PBS buffer): 2700 M⁻¹ cm⁻¹; λmax,abs ([3]; free nucleoside, 1x PBS buffer): 395 nm; λmax,em ([3]; free nucleoside, 1x PBS buffer): 493 nm; effect of chloride on fluorescence [6]: more fluorescent with increasing chloride concentration; response of fluorescence intensity to viscosity [5]: positively correlated to viscosity; Φem [7]: 0.06; λmax,abs [8]: 389 nm; λmax,em [8]: 524 nm
5 | TA: 5′-CGC-ATX-ATC-G-3′ (SEQ ID NO: 16), X = 8-DEA-tC (DNA CGCATCATCG; DNA, [8-DEA-tC] at 6, backbone not given here) | 0.014 | 0.026 | 420 | 495 (495) nm | 417 | 495 (495) nm | -1.6 °C | 48.7 | –
6 | CA: 5′-CGC-ACX-ATC-G-3′ (SEQ ID NO: 13), X = 8-DEA-tC (DNA CGCACCATCG; DNA, [8-DEA-tC] at 6, backbone not given here) | 0.014 | 0.017 | 410 | 494 nm | 420 | 493 nm | +2.1 °C | 57.4 | –
7 | GG: 5′-CGC-AGX-GTC-G-3′ (SEQ ID NO: 14), X = 8-DEA-tC (DNA CGCAGCGTCG; DNA, [8-DEA-tC] at 6, backbone not given here) | 0.027 | 0.056 | 400 | 499 nm | 415 | 498 nm | -7.0 °C | 58.2 | –
8 | GC: 5′-CGC-AGX-CTC-G-3′ (SEQ ID NO: 12), X = 8-DEA-tC (DNA CGCAGCCTCG; DNA, [8-DEA-tC] at 6, backbone not given here) | 0.032 | 0.12 | 348 | 500 nm | 425 | 499 nm | -14.5 °C | 49.1 | increase in fluorescent quantum yield in duplex DNA as compared with the free nucleoside [2]: 20 fold; visible fluorescence response of matched duplex [9]: large increase in fluorescence
